Measurements as given in publication PMC4356558, “Prediction of Chemical Respiratory Sensitizers Using GARD, a Novel In Vitro Assay Based on a Genomic Biomarker Signature” (PLoS ONE, 2015).
In brackets after ≈: the same amount, converted by molar mass. Read-outs that look alike come from different tables or passages of the source.

Tests used:
MUTZ-3 cells = test: Chemical cytotoxicity, concentration yielding 90% relative viability (Rv90), propidium iodide staining
Excerpt: A panel of 32 reference chemicals comprising a selection of 10 well characterized respiratory sensitizers and 22 non-respiratory sensitizers, collectively termed the training dataset, were used for cell stimulations in order to establish the predictive genomic biomarker signature. […] Additionally, a panel of 25 chemicals, including 6 respiratory sensitizers and 19 non-respiratory sensitizers, collectively termed the independent test dataset, were used for cell stimulations in order to form an independent testset for validation of the identified predictive genomic biomarker signature. The […] comprised both control chemicals, included during the training of the model, as well as chemicals previously unseen during training of the model. […] All chemicals were purchased from Sigma-Aldrich (St. Louis, MO, USA). Chemicals were dissolved and diluted into GARD input concentration in either water or DMSO prior to stimulation of cells. For chemicals dissolved in DMSO, the in-well concentration of DMSO was 0.1%. Monitoring of chemical cytotoxicity and establishment of GARD input concentration for each chemical compound was performed as previously described. […] Toxic compounds were used at a concentration yielding 90% relative viability (Rv90). The criterion that was first met determined the GARD input concentration for each compound.
(§1) The human acute myelomonocytic leukemia cell line MUTZ-3[68, 69] was obtained from Leibniz-Institut DSMZ-Deutsche Sammlung von Mikroorganismen und Zellkulturen (DSMZ, Braunschweig, Germany). Maintenance of cells, chemical stimulation of MUTZ-3 and all subsequent isolation of mRNA and preparation of cDNA were performed as previously described. In short, a phenotypic control of MUTZ-3 was performed using flow cytometry prior to chemical stimulation to ensure cells were in an immature state. The following FITC-conjugated mouse monoclonal antibodies (mAbs) were used: CD1a (DakoCytomation, Glostrup, Denmark), CD34, CD86, HLA-DR, IgG1 (BD Biosciences, Franklin Lakes, NJ). The following PE-conjugated mouse monoclonal antibodies were used: CD14 (DakoCytomation), CD54, CD80, IgG1 (BD Biosciences). Cell viability was determined using Propidium Iodide (BD Biosciences) staining. Samples were run on FACSCanto II instrument. Data was acquired using FACS Diva software (BD Biosciences) and analyzed using FCS Express V4 (De Novo Software, Los Angeles, CA). Gating was performed to exclude cell debris and non-viable cells based on forward- and side-scattering properties and quadrants established using isotype-controls. During chemical exposure, cells were seeded at 200.000 cells/ml in 24-well plates and exposed to chemical compound at the GARD input concentration. Stimulated cells were harvested after 24h incubation at 37 °C, 5% CO2 and RNA was isolated with TRIzol reagent (Life Technologies, Carlsbad, CA) using standardized protocols provided by the manufacturer. In parallel, a control of the maturity state of the cells was performed by flow cytometric analysis of CD86. Preparation of cDNA and hybridization, washing and scanning of the Human Gene 1.0 ST Arrays (Affymetrix, Santa Clara, CA, USA) was performed, according to standardized protocols provided by the manufacturer (Affymetrix).

[1] = system: GRPS genomic biomarker signature (389 transcripts) in MUTZ-3 cells; test: GARD assay with GARD Respiratory Prediction Signature (GRPS), SVM classification of respiratory sensitizers
Description: as §1
Gene expression data obtained from the Human Gene 1.0 ST Arrays were normalized using the Single-Channel array normalization (SCAN) algorithm, and potential batch effects between different set of experiments were adjusted using the ComBat empirical bayes method. Normalizations and batch adjustments were performed in R statistical software using the open software Bioconductor v2.14 [73] with the additional software packages SCAN.UPC [70] and sva. Normalized data was imported into Qlucore Omics Explorer 3.0 (Qlucore AB, Lund, Sweden) and visualized using Principal Component Analysis (PCA). Predictors were selected from a one-way ANOVA p-value filtration, using false discovery rate (FDR) to adjust for multiple hypothesis testing, comparing respiratory sensitizers and non-respiratory sensitizers. […] The Backward Elimination algorithm was modified to minimize the Kullback-Leibler error [53] rather than maximizing the Area Under the Receiver Operating Characteristic (AUC ROC), in order to enable signature optimization in cases where the AUC ROC reaches 1.0. […] The script for Backwards Elimination was programmed in R, with the additional package e1071 [78]. The method by which the predictive genomic biomarker signature was established was validated using cross-validation based on Support Vector Machines (SVM), based on a linear kernel, as described previously. In short, the training dataset was randomly divided into a new cross-validation training dataset comprising 70% of the stimulations, and a cross-validation test dataset comprising 30% of the stimulations. In addition, care was taken to maintain the same proportion between respiratory sensitizers and non-respiratory sensitizers as in the complete training dataset. A new predictive genomic biomarker signature was identified from the cross-validation training dataset using one-way ANOVA p-value filtration as described above.

[2] = Max solubility of chemicals in cell media (establishment of GARD input concentration); conditions: for Max solubility: dissolved in vehicle (water or DMSO); for solubility: aqueous buffer, kinetic from dmso stock
[3] = system: CD86 expression of MUTZ-3 cells; test: CD86 cell surface expression of MUTZ-3 cells following chemical stimulation, flow cytometry; format: cell-based, human; conditions: 24 h stimulation at GARD input concentration; students t-test, p<0.05
[4] = replicate stimulation 1, 24 h at GARD input concentration, independent test dataset, > 0 = respiratory sensitizer
[5] = replicate stimulation 2, 24 h at GARD input concentration, independent test dataset, > 0 = respiratory sensitizer
[6] = replicate stimulation 3, 24 h at GARD input concentration, independent test dataset, > 0 = respiratory sensitizer
[7] = respiratory sensitizer if any of replicate stimulations has SVM decision value > 0
[8] = concentration yielding 90% relative viability, MUTZ-3, training dataset
[9] = reference compounds of the training dataset

Structure (SMILES)	SVM decision value 1 [1, 4]	SVM decision value 2 [1, 5]	SVM decision value 3 [1, 6]	Classification, Pos if 1 sample > 0 [1, 7]	other results
O=[N+]([O-])c1ccc(Cl)c([N+](=O)[O-])c1 [2,4-dinitrochlorobenzene]	−1.66	−1.18	−1.90	Non-sensitizer	Rv90 (MUTZ-3 cells; human): 4 µM
Cc1ccc(S(=O)(=O)NCl)cc1 [Chloramine T]	0.52	0.59		Sensitizer	
C=CC(=O)OCCO [2-Hydroxyethyl acrylate]					Rv90 (MUTZ-3 cells; [8]): 100 µM
O=C=Nc1ccc(Cc2ccc(N=C=O)cc2)cc1 [Methylene diphenol diisocyanate]					Max solubility [2, 9]: 50 µM
CCCCCCCCCCCCOS(=O)(=O)[O-].[Na+] [Sodium dodecyl sulphate]					Rv90 (MUTZ-3 cells): 200 µM; Classification, Pos if 1 sample > 0 [1]: Non-sensitizer; SVM decision value 1 [1]: −1.49; SVM decision value 2 [1]: −0.80; SVM decision value 3 [1]: −1.30
O=C(O)c1ccc2c(c1)C(=O)OC2=O [Trimellitic anhydride]					solubility [2]: 150 µM (≈ 28.8 µg/mL)
C=CCc1ccc(O)c(OC)c1 [Eugenol]	−1.67	−1.53	−1.51	Non-sensitizer	Rv90 (MUTZ-3 cells; concentration yielding 90% relative viability, MUTZ-3, independent test dataset): 300 µM
CC(O)C(=O)O (stereo not shown) [Lactic acid]	−1.20	−0.81	−0.89		
Sc1nc2ccccc2s1 [2-mercaptobenzothiazole]	−0.44	−0.43	−0.57		
O=C(O)c1ccccc1O [Salicylic acid]	−0.73	−1.08	−1.13	Non-sensitizer	
Nc1ccccc1O [2-Aminophenol]					Rv90 (MUTZ-3 cells; human): 100 µM; Up-regulation of CD86 in comparison to unstimulated cells [3]: up-regulation of CD86 was also observed
CCCCO [1-Butanol]					Classification, Pos if 1 sample > 0 [1]: Sensitizer; SVM decision value 1 [1]: −0.32; SVM decision value 2 [1]: 0.12
OCC=Cc1ccccc1 [Cinnamyl alcohol]	−0.57		−1.26	Non-sensitizer	solubility [2]: 500 µM (≈ 67.1 µg/mL)
CCOC(=O)c1ccccc1C(=O)OCC [Diethyl phthalate]	−1.37	−0.96	−1.22	Non-sensitizer	
Oc1cccc(O)c1 [Resorcinol]	−1.01	−0.99	−1.40	Non-sensitizer	
O=Cc1ccccc1 [Benzaldehyde]	−0.79	−0.87	−0.70	Non-sensitizer	
CCCCCCCC(=O)O [Octanoic acid]	−0.65	−0.79	−1.22	Non-sensitizer	
[Cl][Pt-2]([Cl])([Cl])([Cl])([Cl])[Cl].[NH4+].[NH4+] [Ammonium hexachloroplatinate]					Max solubility [2, 9]: 35 µM; Up-regulation of CD86 in comparison to unstimulated cells [3]: statistically significant
Nc1ccc(N)cc1 [p-phenylenediamine]	−1.38	−1.19	−1.80	Non-sensitizer	Rv90 (MUTZ-3 cells): 75 µM
Clc1ccccc1 [Chlorobenzene]	−1.03	−0.76	−1.15	Sensitizer	SVM decision value 4 ([1]; replicate stimulation 4, 24 h at GARD input concentration, independent test dataset, > 0 = respiratory sensitizer): 0.24; SVM decision value 5 ([1]; replicate stimulation 5, 24 h at GARD input concentration, independent test dataset, > 0 = respiratory sensitizer): 0.06
O=CC=O [Glyoxal]	−1.02	−0.69	−0.56	Non-sensitizer	Rv90 (MUTZ-3 cells): 300 µM
O=C(O)c1ccc(O)cc1 [p-hydroxybenzoic acid]	−0.81	−0.56	−1.09	Non-sensitizer	
O=CCCCC=O [Glutaraldehyde]					Rv90 (MUTZ-3 cells; [8]): 10 µM; Up-regulation of CD86 in comparison to unstimulated cells [3]: statistically significant
OCC(O)CO [Glycerol]	−1.05	−1.11	−0.77	Non-sensitizer	
Oc1ccccc1 [Phenol]					Classification, Pos if 1 sample > 0 [1]: Non-sensitizer; SVM decision value 1 ([1]; human): −1.04; SVM decision value 2 ([1]; human): −0.38; SVM decision value 3 ([1]; human): −0.95
O=C1OC(=O)c2ccccc21 [Phtalic Anhydride]	0.20	−0.12		Sensitizer	Max solubility ([2]; chemicals of the independent test dataset): 200 µM; Max solubility [2, 9]: 200 µM
C=O [Formaldehyde]					Rv90 (MUTZ-3 cells): 80 µM
